According to ChEMBL document CHEMBL1158192, “Niruriside, a new HIV REV/RRE binding inhibitor from Phyllanthus niruri” (J Nat Prod, 1996):
Calls of active or inactive are those of the source. No cut-off for these calls is given here.

How the values were obtained:
[1] = Inhibition of HIV1 REV protein binding to HIV1 [P33]RRE RNA by liquid scintillation assay; design: species or system Human immunodeficiency virus 1
[2] = Inhibition of R17 coat protein binding to [33P]labeled R17 operator RNA
[3] = Ratio of IC50 for R17 activity to IC50 for HIV1 Rev activity
[4] = system: Human immunodeficiency virus 1; test: Antiviral activity against HIV1 RF in CEM-SS cells assessed as cell protection against virus infection up to 260 uM by XTT assay; assay type: functional, organism-based

Compound `CC(=O)OC[C@H]1O[C@H](O[C@]2(COC(C)=O)O[C@H](COC(=O)/C=C/c3ccccc3)[C@@H](O)[C@@H]2OC(=O)/C=C/c2ccccc2)[C@H](OC(C)=O)[C@@H](O)[C@@H]1OC(C)=O` [NIRURIDE] has an IC50 [1] of 3.3 µM, an IC50 [2] of over 130 µM and a Ratio IC50 [3] of over 40. The Activity [4] was “inactive”.
